In patent US11654136B2, “Phosphoinositide 3-kinase inhibitor with a zinc binding moiety” (Curis, Inc., priority 2011, dated 2023):
“Also recorded” adds a separate entry of the source. Read-outs that look alike come from different tables or passages of the source.

Columns and labels:
MM1S subcutaneous tumor = test: MM1S xenograft model; format: in vivo, SCID/Beige mice; conditions: oral gavage five times per week
Procedure: Female SCID/Beige mice at age 4 weeks were housed in ventilated micro-isolator cages (INNOCAGE®IVC, Innovive Inc., San Diego, Calif.) in a controlled climate, fed with sterile high-fat diet (Problab-RMH 2000) ad libitum and provided with sterilized water. All housing and supplies for SCID/Beige mice were sterilized by autoclaving before use. Mice were inspected daily including weekends/holidays by trained animal facility personnel and investigators. All animal procedures were performed under sterile conditions within a biosafety cabinet (for injections) or laminar flow hood (for animal husbandry and non-invasive procedures).
MM1S human […] cells (Gold-Leikin R E, et al., J Lab Clin Invest. 1980; 113:335-345) were originally obtained from peripheral blood of a multiple myeloma patient. Cryopreserved cells were thawed in a 37° C. water bath and cultured in RPMI medium plus 10% Fetal Bovine Serum (FBS) in a tissue culture incubator at 5% CO2. Cells were sent to outside vendors for contaminants and rodent pathogen screening intended to rule out contamination by mycoplasma (by PCR) and/or virus (by MAP test, Mouse Antibody Production). […] The implanted mice were monitored for general health and tumor development daily.
Tumors were detectable about two weeks following implantation. Tumor size was measured with a caliper. […]
During each animal study, tumors were measured with calipers, tumor size determined using the above mentioned formula, and tumor size changes in percentage calculated. Mouse body weights were measured with a scale twice per week. […] In addition to the determination of tumor size changes, the last tumor measurement was used to generate the tumor weight change ratio (T/C value), a standard metric developed by the National Cancer Institute (NCI) for xenograft tumor evaluation T/C values were calculated using the following formula: % T/C=100×ΔT/ΔC if ΔT>0. […]
The treatment period was 15 days. Tumor sizes and body weights were measured again on the last day of the study.

[1] = Pharmacokinetics in nude mice bearing H2122 tumors; format: in vivo; conditions: PO 50 mg/kg; for Cmax / bioavailability: mouse
Procedure: Nude mice bearing H2122 (human non-small cell lung cancer cell line) xenograft tumors were used for pharmacokinetics studies. […] At various time points following compound administration, three mice per time point were euthanized with CO2, and blood and tumor tissues were collected. Blood was collected into tubes containing sodium heparin. The plasma was separated via centrifugation. Plasma and tissues were stored at −80° C. for later analysis. A PE Sciex API-3000 LC-MS/MS system (Applied Biosystems, Inc., Foster City, Calif.) was used to analyze compound concentrations in plasma and tumor tissues.

T and B lymphocytes = test: Effect on circulating and lymphoid organ lymphocytes; format: in vivo, CD1 wild type mice; conditions: 100 mg/kg orally for five consecutive days
Procedure: Another 5 mice were treated with vehicle. Blood was collected at various time points (including pre-dosing, during dosing and post-dosing) from the mandibular vein. Blood was analyzed with a flow cytometer for T and B cell quantification.
The animals were sacrificed, and the lymphoid organs were collected. Cells were physically dissociated from the tissues and analyzed with a flow cytometer. Anti-CD3 and -CD19 antibodies were used to stain T and B cells, respectively.

[2] = system: Salmonella typhimurium TA100
Procedure: The tester strains used in the mutagenicity assay were Salmonella typhimurium tester strains TA98 (for detecting frame-shift reverse mutation) and TA100 (for detecting point reverse mutation). The assay was conducted in both the presence and absence of S9 mixture along with concurrent vehicle (DMSO, 20 μl/well) and positive controls in duplicate using 6-well plates. […] A reproducible two-fold increase (>2× of vehicle control) of revertant colonies over the daily average control value is considered a positive response of gene mutation for each strain.
2-nitrofluorene and sodium azide served as the positive controls in the absence of S9 for TA98 and TA100 respectively. 2-Aminoanthracene served as the positive controls in the presence of S9 for TA98 and TA100.

[3] = Plasma, H2122 tumor-bearing nude mice

Q: With `COc1ccc(-c2nc(N3CCOCC3)c3sc(CN(C)c4ncc(C(=O)NO)cn4)cc3n2)cn1` [Compound 1, N-hydroxy-2-(((2-(6-methoxypyridin-3-yl)-4-morpholinothieno[3,2-d]pyrimidin-6-yl)methyl)(methyl)amino)pyrimidine-5-carboxamide] as the compound, how does the T/C value (MM1S subcutaneous tumor; day 14, p<0.0001) read?
A: 27.37%

Q: What about the “Body weight and side effects” value (MM1S subcutaneous tumor; single agent, 15 days) of the same compound?
A: No body weight loss or other side effects were observed

Q: And the Tumor growth (MM1S subcutaneous tumor; single agent, 15 days)?
A: inhibited tumor growth

Q: What about the “Distribution between plasma and tumor tissue” value [1] of the same compound?
A: preferentially accumulates in tumor tissue

Q: What about the “Area under the Curve” value [1, 3] of the same compound?
A: 478 ng/mL * hr

Q: What about the Half-life [1, 3] of the same compound?
A: 5.9 h

Q: And the “Area under the Curve” value ([1]; Tumor)?
A: 2126 ng/mL * hr

Q: What about the Half-life ([1]; Tumor) of the same compound?
A: 10.1 h

Q: And the Cmax ([1]; Tumor)?
A: 154 ng/mL

Q: What about the bioavailability ([1]; Tumor) of the same compound?
A: 14.8%

Q: What about the Cmax [1, 3] of the same compound?
A: 186 ng/mL

Q: And the bioavailability [1, 3]?
A: 7.8%

Q: What about the “Blood levels of T and B lymphocytes” value (T and B lymphocytes; blood) of the same compound?
A: significant reversible reduction in the blood levels of both T and B lymphocytes

Q: And the “T and B lymphocyte levels in spleen and lymph nodes” value (T and B lymphocytes; spleen and lymph nodes)?
A: significant reduction in both T and B lymphocytes

Q: What about the “Background Lawn TA100” value ([2]; +S9, 62.5 μg/well) of the same compound?
A: 4/4

Q: What about the “Revertants per well TA100, Mean” value ([2]; +S9, 62.5 μg/well) of the same compound?
A: 32

Q: What about the “Revertants per well TA100, well 1” value ([2]; +S9, 62.5 μg/well) of the same compound?
A: 34

Q: And the “Revertants per well TA100, well 2” value ([2]; +S9, 62.5 μg/well)?
A: 30

Q: What about the “Background Lawn TA100” value ([2]; +S9, 125 μg/well) of the same compound?
A: 4/4

Q: What about the “Revertants per well TA100, Mean” value ([2]; +S9, 125 μg/well) of the same compound?
A: 29

Q: And the “Revertants per well TA100, well 1” value ([2]; +S9, 125 μg/well)?
A: 28

Q: And the “Revertants per well TA100, well 2” value ([2]; +S9, 125 μg/well)?
A: 30

Q: What about the “Background Lawn TA100” value ([2]; +S9, 250 μg/well) of the same compound?
A: 4/4

Q: And the “Revertants per well TA100, Mean” value ([2]; +S9, 250 μg/well)?
A: 29

Q: And the “Revertants per well TA100, well 1” value ([2]; +S9, 250 μg/well)?
A: 30

Q: And the “Revertants per well TA100, well 2” value ([2]; +S9, 250 μg/well)?
A: 28

Q: What about the “Background Lawn TA100” value ([2]; +S9, 500 μg/well) of the same compound?
A: 3,sp/3,sp

Q: What about the “Revertants per well TA100, Mean” value ([2]; +S9, 500 μg/well) of the same compound?
A: 35

Q: What about the “Revertants per well TA100, well 1” value ([2]; +S9, 500 μg/well) of the same compound?
A: 32

Q: What about the “Revertants per well TA100, well 2” value ([2]; +S9, 500 μg/well) of the same compound?
A: 37

Q: And the “Background Lawn TA100” value ([2]; +S9, 1000 μg/well)?
A: 3,mp/3,mp

Q: What about the “Revertants per well TA100, Mean” value ([2]; +S9, 1000 μg/well) of the same compound?
A: 34

Q: And the “Revertants per well TA100, well 1” value ([2]; +S9, 1000 μg/well)?
A: 33

Q: And the “Revertants per well TA100, well 2” value ([2]; +S9, 1000 μg/well)?
A: 34

Q: What about the “Mutagenic response TA100” value ([2]; presence and absence of S9, up to 1000 μg/well) of the same compound?
A: no evidence of a significant increase in the mean number of revertant colonies; also recorded: did not induce a positive mutagenic response

Q: What about the “Background Lawn TA100” value ([2]; −S9, 62.5 μg/well) of the same compound?
A: 4/4

Q: What about the “Revertants per well TA100, Mean” value ([2]; −S9, 62.5 μg/well) of the same compound?
A: 32

Q: What about the “Revertants per well TA100, well 1” value ([2]; −S9, 62.5 μg/well) of the same compound?
A: 34

Q: What about the “Revertants per well TA100, well 2” value ([2]; −S9, 62.5 μg/well) of the same compound?
A: 30

Q: And the “Background Lawn TA100” value ([2]; −S9, 125 μg/well)?
A: 4/4

Q: What about the “Revertants per well TA100, Mean” value ([2]; −S9, 125 μg/well) of the same compound?
A: 33

Q: What about the “Revertants per well TA100, well 1” value ([2]; −S9, 125 μg/well) of the same compound?
A: 32

Q: What about the “Revertants per well TA100, well 2” value ([2]; −S9, 125 μg/well) of the same compound?
A: 34

Q: And the “Background Lawn TA100” value ([2]; −S9, 250 μg/well)?
A: 4,sp/4,sp

Q: And the “Revertants per well TA100, Mean” value ([2]; −S9, 250 μg/well)?
A: 32

Q: What about the “Revertants per well TA100, well 1” value ([2]; −S9, 250 μg/well) of the same compound?
A: 34

Q: What about the “Revertants per well TA100, well 2” value ([2]; −S9, 250 μg/well) of the same compound?
A: 29

Q: And the “Background Lawn TA100” value ([2]; −S9, 500 μg/well)?
A: 3,sp/3,sp

Q: What about the “Revertants per well TA100, Mean” value ([2]; −S9, 500 μg/well) of the same compound?
A: 32

Q: What about the “Revertants per well TA100, well 1” value ([2]; −S9, 500 μg/well) of the same compound?
A: 33

Q: And the “Revertants per well TA100, well 2” value ([2]; −S9, 500 μg/well)?
A: 31

Q: What about the “Background Lawn TA100” value ([2]; −S9, 1000 μg/well) of the same compound?
A: 3,mp/3,mp

Q: And the “Revertants per well TA100, Mean” value ([2]; −S9, 1000 μg/well)?
A: 27

Q: And the “Revertants per well TA100, well 1” value ([2]; −S9, 1000 μg/well)?
A: 28

Q: What about the “Revertants per well TA100, well 2” value ([2]; −S9, 1000 μg/well) of the same compound?
A: 26
